Laboratory results taken from patent publication US20250186960A1, “BIODEGRADABLE MICROCAPSULES AND A METHOD FOR THEIR PREPARATION” (priority 2022, published 2025).

Assay: Microcapsule fragrance loading quantification via GC
Format: physicochemical
Details: for Composition 2 (encapsulate wt %): level of the fragrance material in microcapsules of Example 21B; for Composition 2 (oil wt %) / Composition 1 (oil wt %): share of the fragrance material in the encapsulated oil; for Composition 2 (oil wt %): Example 21B; for Composition 1 (encapsulate wt %): level of the fragrance material in microcapsules of Example 21A; for Composition 1 (oil wt %): Example 21A
Text: Fragrance levels in the microcapsule can be determined by extraction of the fragrance and injection into a GC column. An Agilent 8890 gas chromatograph is used, equipped with a HP-5MS column, and using hydrogen as carrier gas. Quantification is achieved by use of a calibration curve for the given fragrance material diluted in ethanol.
To measure the total level of fragrance in an encapsulate sample, the capsules must first be broken by sonication, for example 1.0 g of encapsulate in 2.0 g of DI water with a Bandelin Sonopuls HD4200 ultrasonicator, equipped with probe TS104 for 1 minute at 30% amplitude (around 1.5 KJ in total). A few drops of aqueous potassium hydroxide solution (10% wt) are added before sonication to raise the pH of the solution above 11. While sonicating, ice is used to keep the temperature below room temperature (20° C.) to avoid any loss of fragrance through evaporation. A microscope is used to check visually if the capsules are fully broken. If not, sonication is repeated. Ethanol is added to the mixture, which is then mixed and centrifuged. The supernatant is collected and retained as the first extraction. The residue is mixed with ethanol again and centrifuged. The supernatant is collected and added to the first extraction. This is then diluted as appropriate and injected into the GC for analysis.
To measure the level of free fragrance in the sample (i.e. the level of un-encapsulated fragrance), the encapsulate slurry is well mixed in DI water and filtered using a sterile cell strainer (40 μm Nylon mesh). The filtrate is diluted with ethanol and injected into the GC for analysis.
The encapsulated fragrance level is the difference between the total fragrance and the free fragrance levels.

Row | Composition 2 (encapsulate wt %) [wt %] | Composition 2 (oil wt %) [wt %] | Composition 1 (encapsulate wt %) [wt %] | Composition 1 (oil wt %) [wt %] | Compound
1 | 0.63 | 21.5 | – | – | C=C(C)[C@H]1CC=C(C)CC1 [Dipentene]
2 | – | – | 0.39 | 21.3 | CCC=C(C)C(O)CCCCC (centres unmarked) [Undecavertol]
3 | – | – | 0.01 | 0.5 | OC/C=C/c1ccccc1 [Cinnamic alcohol]
4 | 0.59 | 20.1 | – | – | c1ccc(Oc2ccccc2)cc1 [Diphenyl oxide]
5 | 0.52 | 17.7 | – | – | Ortho tertiary butyl cyclo hexyl acetate
6 | 0.53 | 18.1 | 0.54 | 29.5 | C/C=C/C(=O)C1C(C)C=CCC1(C)C (centres unmarked) [Delta damascone]
7 | – | – | 0.11 | 6.0 | CC(C)=CCC/C(C)=C/CO [Geraniol]
8 | 0.66 | 22.5 | – | – | O=C(OCc1ccccc1)c1ccccc1O [Benzyl salicylate]

Row | Compound | Composition 2 (encapsulate wt %) [wt %] | Composition 2 (oil wt %) [wt %] | Composition 1 (encapsulate wt %) [wt %] | Composition 1 (oil wt %) [wt %]
9 | CCCCCCCCCCCC#N [dodecane nitrile] | – | – | 0.79 | 43.2
